Results from US20250129012A1, “ANTI-INFLAMMATORY AND ANALGESIC COMPOUNDS AND USE THEREOF” (JIANGSU ATOM BIOSCIENCE AND PHARMACEUTICAL CO., LTD., priority 2021, published 2025).
Like-named read-outs stand apart in the source and are kept apart here. Marks after values point to notes of the source that are not given here.

Legend:
IL-6 [1] = assay: Inflammatory factor experiment B: IL-6 in knee synovial tissue (ELISA); assay type: in vivo, SD rats; settings: Rattus norvegicus, po; synovial tissue of knee joints, 48 h after modeling; dose 0.6 mg/kg; read-out: IL-6 percentage decrease %
TNF-α [2] = assay: Inflammatory factor experiment B: TNF-α in knee synovial tissue (ELISA); assay type: in vivo, SD rats; settings: Rattus norvegicus, po; synovial tissue of knee joints, 48 h after modeling; dose 0.6 mg/kg; read-out: TNF-α percentage decrease %
IL-1β = assay: Inflammatory factor experiment B: IL-1β in knee synovial tissue (ELISA); assay type: in vivo, SD rats; settings: Rattus norvegicus, po; synovial tissue of knee joints, 48 h after modeling; dose 0.6 mg/kg; read-out: IL-1β percentage decrease %
[3] = Acute toxicity test in mice by single administration; assay type: in vivo, ICR mice; settings: both sexes, ICR, mouse, in vivo, po; acute toxicity, mice, single gavage; read-out: Maximum tolerated dose (MTD)
Method: (§1) Compounds 34, 48, 55 and 58 were ground with 0.5% CMC-Na before administration, and prepared into a suspension of the corresponding concentration for gavage, with an administration volume of 0.1 mL/10 g.
(§2) ICR mice, SPF grade, weighing 18-20 g, 6-8 weeks old, were provided by Nantong University. The Laboratory Animal Production License was SCXK (Su) 2016-0010 and Laboratory Animal Use License was SYXK (Su) 2017-0035.
(§3) After overnight fasting, the drug was administered once by gavage in a volume of 0.1 mL/10 g. The normal group was given the corresponding volume of 0.5% CMC-Na solution according to body weight. The state of the animal was observed after administration, the animals were weighed daily and the number of deaths was recorded for 14 consecutive days.

ICR mice = assay: as above; assay type: in vivo; settings: 14 days, deaths/animals
Method: as §1, §2, §3

[4] = In vivo pharmacokinetics in SD rats; settings: Sprague-Dawley, rat; for F / AUC(0-inf) / MRT inf / Vd / clearance / Cmax / Tmax: in vivo; for half-life: plasma, read-out: t1/2 (converted)
Method: Compound stock solution preparation: an appropriate amount of solid powder of the compounds were weighed separately, a certain amount of DMSO was added and 20 mg/mL of stock solution was obtained under vortex ultrasound.
Preparation of test compound for gavage: an appropriate amount of compound stock solution was taken by pipette, a certain amount of Solutol HS15 solution was added, the mixture was vortexed for 1 minute, then a certain amount of saline was added, and 1 mg/mL of solution was obtained after mixing well.
Preparation of test compounds for intravenous injection: an appropriate amount of compound stock solution was taken by pipette separately, a certain amount of Solutol HS15 solution was added, the mixture was vortexed for 1 minute, then a certain amount of physiological saline was added and a solution of 0.5 mg/mL was obtained after mixing well.
The animals were fasted overnight before administration by gavage, and food was given 4 hours after administration, during which they were free to drink. Two groups were set for each test compound, intravenous injection group and oral administration group, and the dose and mode of administration were shown in Table 12 below.
The blood samples were centrifuged at 4° C. for 5 min at 2,000 g to separate the plasma. The plasma samples were analyzed by LC/MS/MS to detect the concentration of each test compound in the plasma samples.
The parameters related to the […] were obtained by calculations with WinNonlin® Professional software.

IL-6 [5] = assay: Inflammatory factor experiment A: IL-6 in gouty arthritis rats; assay type: in vivo, SD rats; settings: synovial tissue of knee joints; dose 0.6 mg/kg gavage; day 10
Method: (§4) Compounds 14, 17 and 26 were prepared by grinding with 0.5% CMC-Na before administration and into a suspension for gavage at the corresponding concentration (0.06 mg/mL), with a dosage volume of 10 mL/kg. Colchicine, purchased from Sun Chemical Technology (Shanghai) Co., Ltd. with batch no. 49ETRRAS, and was prepared by grinding with 0.5% CMC-Na before administration and into a suspension for gavage at the corresponding concentration (0.06 mg/mL), with a dosage volume of 10 mL/kg.
(§5) The compounds in each group were prepared into a suspension of the corresponding concentration, and the dosage volume was 10 mL/kg.
(§6) The crystalline arthritis model was prepared by intra-articular injection of urate crystals (40 mg/mL in the left ankle joint of each rat). Different doses of the test compounds were given separately by gavage administration. The day of administration was defined as day 1 of the experiment, and the compounds were administered once a day for 10 consecutive days (pre-administration of the drug for 7 days prior to modeling, modeling on day 8, and continuation of the drug for 3 days). The experiment ended on day 10. […]

TNF-α [6] = assay: Inflammatory factor experiment A: TNF-α in gouty arthritis rats; assay type: in vivo, SD rats; settings: synovial tissue of knee joints; dose 0.6 mg/kg gavage; day 10
Method: as §4, §5, §6

[7] = tested on: gouty arthritis rats (sodium urate, right ankle and knee joint cavities); assay: Pharmacodynamics experiment B on gouty arthritis rats: ankle swelling rate; assay type: in vivo, SD rats; settings: Rattus norvegicus, po, dose 0.6 mg/kg gavage, read-out: Swelling rate (ankle)
How it was run: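 Male SD rats dosed by gavage at 0.6 mg/kg (0.5% CMC-Na suspension) daily for 7 days before and 3 days after injection of 0.2 mL sodium urate solution into right ankle and knee joints. Ankle circumference measured before and 2-48 h after modeling; swelling rate = swelling degree/baseline ×100%, mean values.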

[8] = tested on: gouty arthritis rats (sodium urate, right ankle and knee joint cavities); assay: Pharmacodynamics experiment B on gouty arthritis rats: gait score; assay type: in vivo, SD rats; settings: for Gait Score: dose 0.6 mg/kg gavage, mean; for Gait versus model group, in words: compounds 0.6 mg/kg, colchicine 0.6 and 1.2 mg/kg
How it was run: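 Male SD rats (180-220 g) received test compounds by gavage as 0.5% CMC-Na suspensions, once daily for 7 days before modeling and for 3 days afterward. Gouty arthritis was induced by injecting 0.2 mL sodium urate solution into the right ankle and knee joint cavities. Gait was graded 0-3 using modified Coderre criteria, and group mean scores were compared with the model group by ANOVA-Dunnett T-test (P<0.05).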

[9] = Intravenous injection - 1 mg/kg

CCNC(=O)c1ccc2c(cc1=O)[C@@H](NC(C)=O)CCc1cc(OC)c(OC)c(OC)c1-2 [Compound 55, (S)-7-acetamido-1,2,3-trimethoxy-N-ethyl-9-oxo-5,6,7,9-tetrahydrobenzo[a]heptalen-10-carboxamide]
inhibition in vivo at 0.6 mg/kg (IL-6 [1]): 128%
inhibition in vivo at 0.6 mg/kg (TNF-α [2]): 86.4%
inhibition in vivo at 0.6 mg/kg (IL-1β): 133%
MTD at 14 days [3]: > 600 mg/kg
Mortality rate (ICR mice; single gavage dose 50 mg/kg): 0/6
Mortality rate (ICR mice; single gavage dose 100 mg/kg): 0/6
Mortality rate (ICR mice; single gavage dose 400 mg/kg): 0/6
Mortality rate (ICR mice; single gavage dose 600 mg/kg): 0/6
F ([4]; 10 mg/kg): 115%
AUC(0-inf) ([4]; iv, 1 mg/kg): 543 ng·h/mL
MRT inf ([4]; iv, 1 mg/kg): 0.592 h
Vd ([4]; iv, 1 mg/kg): 1.1 L/kg
clearance ([4]; iv, 1 mg/kg): 31.2 mL/min/kg
AUC(0-inf) ([4]; po, 10 mg/kg): 6260 ng·h/mL
Cmax ([4]; po, 10 mg/kg): 2040 ng/mL
MRT inf ([4]; po, 10 mg/kg): 2.72 h
Tmax ([4]; po, 10 mg/kg): 0.333 h
half-life ([4]; po, Gavage - 10 mg/kg): 2.02 h
half-life [4, 9]: 0.6 h

COc1cc2c(c(OC)c1OC)-c1cc(Br)c(OC)c(=O)cc1[C@@H](NC(C)=O)CC2 [Compound 14, (S)—N-(11-bromo-1,2,3,10-tetramethoxy-9-oxo-5,6,7,9-tetrahydrobenzo[a]heptalen-7-yl)acetamide]
Decreased IL-6 percentage % (IL-6 [5]): 119.58%
Decreased TNF-α percentage % (TNF-α [6]): 125.78%

CNC(=O)c1ccc2c(cc1=O)[C@@H](NC(C)=O)CCc1cc(OC)c(OC)c(OC)c1-2 [Compound 48, (S)-7-acetamido-1,2,3-trimethoxy-N-methyl-9-oxo-5,6,7,9-tetrahydrobenzo[a]heptalene-10-carboxamide]
change in vivo at 0.6 mg/kg ([7]; 2 h): 9.42%
change in vivo at 0.6 mg/kg ([7]; 4 h): 15.5%
change in vivo at 0.6 mg/kg ([7]; 8 h): 21%
change in vivo at 0.6 mg/kg ([7]; 10 h): 21.5%
change in vivo at 0.6 mg/kg ([7]; 24 h): 22.4%
change in vivo at 0.6 mg/kg ([7]; 48 h): 13.6%
Gait Score ([8]; 2 h): 0
Gait Score ([8]; 4 h): 0.1
Gait Score ([8]; 8 h): 0.1**
Gait Score ([8]; 10 h): 0**
Gait Score ([8]; 24 h): 0*
Gait Score ([8]; 48 h): 0
Gait versus model group, in words [8]: significant improvement in gait occurred at different time points
inhibition in vivo at 0.6 mg/kg (IL-6 [1]): 110%
inhibition in vivo at 0.6 mg/kg (TNF-α [2]): 81.6%
inhibition in vivo at 0.6 mg/kg (IL-1β): 82.2%
MTD at 14 days [3]: > 600 mg/kg
Mortality rate (ICR mice; single gavage dose 50 mg/kg): 0/6
Mortality rate (ICR mice; single gavage dose 100 mg/kg): 0/6
Mortality rate (ICR mice; single gavage dose 400 mg/kg): 0/6
Mortality rate (ICR mice; single gavage dose 600 mg/kg): 0/6
F ([4]; 10 mg/kg): 57.0%
AUC(0-inf) ([4]; iv, 1 mg/kg): 580 ng·h/mL
MRT inf ([4]; iv, 1 mg/kg): 0.641 h
Vd ([4]; iv, 1 mg/kg): 1.11 L/kg
clearance ([4]; iv, 1 mg/kg): 29.2 mL/min/kg
AUC(0-inf) ([4]; po, 10 mg/kg): 3300 ng·h/mL
Cmax ([4]; po, 10 mg/kg): 1930 ng/mL
MRT inf ([4]; po, 10 mg/kg): 1.83 h
Tmax ([4]; po, 10 mg/kg): 0.25 h
half-life ([4]; po, Gavage - 10 mg/kg): 1.61 h
half-life [4, 9]: 0.536 h

COc1cc2c(c(OC)c1OC)-c1ccc(C(=O)Nc3ccccc3)c(=O)cc1[C@@H](NC(C)=O)CC2 [Compound 58, (S)-7-acetamido-1,2,3-trimethoxy-N-phenyl-9-oxo-5,6,7,9-tetrahydrobenzo[a]heptalen-10-carboxamide]
change in vivo at 0.6 mg/kg ([7]; 2 h): 6.48%
change in vivo at 0.6 mg/kg ([7]; 4 h): 13.8%
change in vivo at 0.6 mg/kg ([7]; 8 h): 17.2%
change in vivo at 0.6 mg/kg ([7]; 10 h): 20.4%
change in vivo at 0.6 mg/kg ([7]; 24 h): 18.1%
change in vivo at 0.6 mg/kg ([7]; 48 h): 8.42%
Gait Score ([8]; 2 h): 0
Gait Score ([8]; 4 h): 0*
Gait Score ([8]; 8 h): 0.3
Gait Score ([8]; 10 h): 0.2**
Gait Score ([8]; 24 h): 0
Gait Score ([8]; 48 h): 0
Gait versus model group, in words [8]: significant improvement in gait occurred at different time points
inhibition in vivo at 0.6 mg/kg (IL-6 [1]): 86.7%
inhibition in vivo at 0.6 mg/kg (TNF-α [2]): 80.5%
inhibition in vivo at 0.6 mg/kg (IL-1β): 87.5%
MTD at 14 days [3]: > 600 mg/kg
Mortality rate (ICR mice; single gavage dose 50 mg/kg): 0/6
Mortality rate (ICR mice; single gavage dose 100 mg/kg): 0/6
Mortality rate (ICR mice; single gavage dose 400 mg/kg): 0/6
Mortality rate (ICR mice; single gavage dose 600 mg/kg): 0/6
F ([4]; 10 mg/kg): 109%
AUC(0-inf) ([4]; iv, 1 mg/kg): 1390 ng·h/mL
MRT inf ([4]; iv, 1 mg/kg): 2.04 h
Vd ([4]; iv, 1 mg/kg): 1.44 L/kg
clearance ([4]; iv, 1 mg/kg): 12.1 mL/min/kg
AUC(0-inf) ([4]; po, 10 mg/kg): 15100 ng·h/mL
Cmax ([4]; po, 10 mg/kg): 2040 ng/mL
MRT inf ([4]; po, 10 mg/kg): 4.58 h
Tmax ([4]; po, 10 mg/kg): 2.67 h
half-life ([4]; po, Gavage - 10 mg/kg): 2.22 h
half-life [4, 9]: 1.92 h
